Columns and labels:
Assay in all cases: Antimicrobial activity (MIC)
Format in all cases: cell-based
[1] = system: Pseudomonas fluorescens; settings: Pseudomonas fluorescens; Strain ID DSM50337; potato dextrose broth pH 3.8; read-out: Minimal Inhibitory Concentration (MIC)
[2] = system: Zygosaccharomyces bailii; settings: Zygosaccharomyces bailii, DSM70834; Strain ID DSM 70834; potato dextrose broth pH 3.8; read-out: Minimal Inhibitory Concentration (MIC)
[3] = system: Salmonella enterica ssp. enterica Ser. typhimurium; settings: Salmonella enterica, DSM 17058 / TYPHIMURIUM; Strain ID DSM 17058; potato dextrose broth pH 3.8; read-out: Minimal Inhibitory Concentration (MIC)
[4] = system: Bacillus cereus; settings: Bacillus cereus; Strain ID DSM4490; potato dextrose broth pH 3.8; read-out: Minimal Inhibitory Concentration (MIC)
[5] = system: Corynebacterium xerosis; settings: Corynebacterium xerosis, DSM20743; Strain ID DSM 20743; potato dextrose broth pH 3.8; read-out: Minimal Inhibitory Concentration (MIC)
[6] = system: Lactobacillus paracasei ssp. paracasei; settings: Lacticaseibacillus paracasei, DSM46331; Strain ID DSM 46331; potato dextrose broth pH 3.8; read-out: Minimal Inhibitory Concentration (MIC)
[7] = system: Enterococcus faecalis; settings: Enterococcus faecalis, ATCC7080; Strain ID ATCC 7080; potato dextrose broth pH 3.8; read-out: Minimal Inhibitory Concentration (MIC)
[8] = system: Campylobacter jejuni; settings: Campylobacter jejuni, DSM4688; Strain ID DSM 4688; potato dextrose broth pH 3.8; read-out: Minimal Inhibitory Concentration (MIC)
[9] = system: Pasteurella multocida ssp. multocida; settings: Pasteurella multocida, DSM16031; Strain ID DSM 16031; potato dextrose broth pH 3.8; read-out: Minimal Inhibitory Concentration (MIC)
[10] = system: Fusobacterium nucleatum subsp. vincentii; settings: Fusobacterium nucleatum, DSM19507; Strain ID DSM 19507; potato dextrose broth pH 3.8; read-out: Minimal Inhibitory Concentration (MIC)
[11] = system: Pseudomonas aeruginosa; settings: Pseudomonas aeruginosa, DSM1117; Strain ID DSM 1117; potato dextrose broth pH 3.8; read-out: Minimal Inhibitory Concentration (MIC)
[12] = system: Candida parapsilosis; settings: Lodderomyces parapsilosis, ATCC20384; Strain ID ATCC 20384; potato dextrose broth pH 3.8; read-out: Minimal Inhibitory Concentration (MIC)
[13] = system: Candida albicans; settings: Candida albicans; Strain ID ATCC10231; potato dextrose broth pH 3.8; read-out: Minimal Inhibitory Concentration (MIC)
[14] = system: Bacillus licheniformis; settings: Bacillus licheniformis, DSM13; Strain ID DSM 13; potato dextrose broth pH 3.8; read-out: Minimal Inhibitory Concentration (MIC)
[15] = system: Cutibacterium acnes; settings: Cutibacterium acnes, DSM1897; Strain ID DSM 1897; potato dextrose broth pH 3.8; read-out: Minimal Inhibitory Concentration (MIC)
[16] = system: Byssochlamys fulva; settings: Paecilomyces fulvus, DSM1808; Strain ID DSM 1808; potato dextrose broth pH 3.8; read-out: Minimal Inhibitory Concentration (MIC)
[17] = system: Listeria monocytogenes; settings: Listeria monocytogenes, DSM20600; Strain ID DSM 20600; potato dextrose broth pH 3.8; read-out: Minimal Inhibitory Concentration (MIC)
[18] = system: Streptococcus mutans; settings: Streptococcus mutans, DSM20523; Strain ID DSM 20523; potato dextrose broth pH 3.8; read-out: Minimal Inhibitory Concentration (MIC)
[19] = system: Phanerochaete chrysosporium; settings: Phanerodontia chrysosporium, DSM1556; Strain ID DSM 1556; potato dextrose broth pH 3.8; read-out: Minimal Inhibitory Concentration (MIC)
[20] = system: Staphylococcus aureus; settings: Staphylococcus aureus, DSM2569; Strain ID DSM 2569; potato dextrose broth pH 3.8; read-out: Minimal Inhibitory Concentration (MIC)
[21] = system: Lactobacillus plantarum ssp. plantarum; settings: Lactiplantibacillus plantarum, DSM20174; Strain ID DSM 20174; potato dextrose broth pH 3.8; read-out: Minimal Inhibitory Concentration (MIC)
[22] = system: Gluconacetobacter liquefaciens; settings: Gluconacetobacter liquefaciens, DSM5603; Strain ID DSM 5603; potato dextrose broth pH 3.8; read-out: Minimal Inhibitory Concentration (MIC)
[23] = system: Brettanomyces naardenensis; settings: Brettanomyces naardenensis, CBS6115; Strain ID CBS 6115; potato dextrose broth pH 3.8; read-out: Minimal Inhibitory Concentration (MIC)
[24] = system: Alicyclobacillus acidoterrestris; settings: Alicyclobacillus acidoterrestris, DSM2498; Strain ID DSM 2498; potato dextrose broth pH 3.8; read-out: Minimal Inhibitory Concentration (MIC)
[25] = system: Yarrowia lipolytica; settings: Yarrowia lipolytica, DSM70561; Strain ID DSM 70561; potato dextrose broth pH 3.8; read-out: Minimal Inhibitory Concentration (MIC)
[26] = system: Zygosaccharomyces rouxii; settings: Zygosaccharomyces rouxii, DSM7525; Strain ID DSM 7525; potato dextrose broth pH 3.8; read-out: Minimal Inhibitory Concentration (MIC)
[27] = system: Malassezia furfur; settings: Malassezia furfur, DSM6170; Strain ID DSM 6170; potato dextrose broth pH 3.8; read-out: Minimal Inhibitory Concentration (MIC)

Measured: MIC

C[C@@H]1O[C@@H](O[C@H]2[C@H](O[C@H]3CC[C@@]4(C)[C@@H](CC[C@]5(C)[C@@H]4CC=C4[C@@H]6CC(C)(C)CC[C@]6(C(=O)O)CC[C@]45C)[C@]3(C)CO)OC[C@H](O)[C@@H]2O)[C@H](O)[C@H](O[C@@H]2OC[C@@H](O)[C@H](O)[C@H]2O)[C@H]1O [A, Sapindoside B [30994-75-3]]
80 µg/mL: [10]
500 µg/mL: [26]
40 µg/mL: [21] | [24]
140 µg/mL: [22]
> 80 µg/mL: all other assays above
